The source of these data is article PMC6747315, “Formation of α-Farnesene in Tea (Camellia sinensis) Leaves Induced by Herbivore-Derived Wounding and Its Effect on Neighboring Tea Plants” (International Journal of Molecular Sciences, 2019).

This test addresses T1, CsAFS (α-farnesene synthase) (Camellia sinensis, UniProt A0A3G3IRF8).
T1 construct: full-length ORF cloned in pET32a (EcoRV/SalI); cloning primers encode N-terminus MDCSKGML and C-terminus LIEPLKIN
T1 sequence (A0A3G3IRF8 1-560): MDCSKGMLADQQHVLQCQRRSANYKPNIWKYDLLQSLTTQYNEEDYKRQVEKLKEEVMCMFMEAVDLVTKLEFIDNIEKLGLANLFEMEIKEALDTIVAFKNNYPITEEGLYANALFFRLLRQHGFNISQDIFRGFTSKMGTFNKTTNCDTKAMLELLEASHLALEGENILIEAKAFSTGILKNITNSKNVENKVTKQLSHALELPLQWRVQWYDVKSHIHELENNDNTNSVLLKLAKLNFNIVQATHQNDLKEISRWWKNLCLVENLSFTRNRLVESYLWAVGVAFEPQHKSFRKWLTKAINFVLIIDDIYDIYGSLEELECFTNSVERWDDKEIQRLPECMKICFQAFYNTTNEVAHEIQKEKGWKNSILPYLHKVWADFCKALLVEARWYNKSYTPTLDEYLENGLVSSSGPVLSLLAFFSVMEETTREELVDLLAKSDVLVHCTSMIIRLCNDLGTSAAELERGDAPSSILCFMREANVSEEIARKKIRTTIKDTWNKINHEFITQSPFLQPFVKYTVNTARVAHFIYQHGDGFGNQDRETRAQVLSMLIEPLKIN
The experiment in a line: SPME GC-MS product analysis. The test is classed as biochemical. To be noted: 15 µg protein in 1 mL, 10 mM MgCl2, 1 mM MnCl2, 500 mM KCl, pH 7.0, 30 °C, 1 h.

With `CC(C)=CCC/C(C)=C/COP(=O)(O)OP(=O)(O)O` [geranyl diphosphate], the “SPME GC-MS product analysis” value (product β-ocimene) was “with geranyl diphosphate (GPP) as substrate, the CsAFS enzyme produced only β-ocimene”.

Consider `CC(C)=CCC/C(C)=C/CC/C(C)=C/COP(=O)(O)OP(=O)(O)O` [farnesyl diphosphate], for which the “SPME GC-MS product analysis” value (product α-farnesene) was “recombinant protein CsAFS converted substrate farnesyl diphosphate (FPP) into α-farnesene as the final product”.
